# Source: publication PMC11007943 (BMC Chemistry, 2024)
# “And” between values parts separate entries of the source, which are not always exact repeats. Equal values may be shown once. “Also recorded” adds a separate entry of the source. Read-outs that look alike come from different tables or passages of the source.
# What was measured:
# [1] = target: T1, BChE (Homo sapiens, UniProt P06276); conditions: read-out: IC50 against BChE; cited from earlier work
# [2] = cited from earlier work
# [3] = target: T2, AChE (Homo sapiens, UniProt P22303); conditions: read-out: IC50 against AChE; cited from earlier work
# T2 sequence (P22303 32-614): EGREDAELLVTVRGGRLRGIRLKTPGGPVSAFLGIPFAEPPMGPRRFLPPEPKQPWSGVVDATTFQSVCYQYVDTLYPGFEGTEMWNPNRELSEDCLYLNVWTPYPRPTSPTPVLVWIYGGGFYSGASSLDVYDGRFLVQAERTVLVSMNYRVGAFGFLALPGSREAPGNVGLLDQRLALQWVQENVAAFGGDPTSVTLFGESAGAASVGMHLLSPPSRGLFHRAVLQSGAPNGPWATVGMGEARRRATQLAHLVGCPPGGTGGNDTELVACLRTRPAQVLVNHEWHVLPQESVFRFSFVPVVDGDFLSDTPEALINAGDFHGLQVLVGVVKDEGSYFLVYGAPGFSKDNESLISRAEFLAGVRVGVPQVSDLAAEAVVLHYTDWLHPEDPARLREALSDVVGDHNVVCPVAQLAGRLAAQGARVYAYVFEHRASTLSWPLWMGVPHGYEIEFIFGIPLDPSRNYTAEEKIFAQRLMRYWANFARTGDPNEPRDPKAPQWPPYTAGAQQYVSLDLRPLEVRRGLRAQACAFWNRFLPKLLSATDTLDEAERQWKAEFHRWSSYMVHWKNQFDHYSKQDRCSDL
# [4] = target: T1, BChE; assay: BChE inhibition, modified Ellman's method; format: biochemical
# Method: Cholinesterase inhibitory activities of all derivatives were assessed using the modified Ellman’s method. Briefly, 20 µL AChE 0.18 units/mL, or 20 µL BChE 0.162 units/mL, and 20 µL DTNB (301 μM) were added to 200 μL sodium phosphate buffer (0.1 mol/L, pH = 7.4) in separate wells of a 96-well microplate and gently mixed. […]. The absorbance of each well was measured at 415 nm using a microplate reader. IC50 and inhibition values were calculated with the software curve expert as the mean of three independent experiments and expressed as mean ± SEM [25, 26].
# [5] = target: T2, AChE; assay: biochemical; format: biochemical; conditions: for inhibition at 50 µM: mean ± S.E
# [6] = target: T1, BChE; assay: Enzyme kinetic study against BChE (Lineweaver–Burk and secondary plots); format: biochemical
# Description: […]. As the concentration of inhibitor 4k increased, the Michaelis–Menten constant (Km) increased, and the maximum reaction rate (Vmax) remained unaffected.
# The Ki value provides important information about the strength of the interaction between the inhibitor and the enzyme (Fig. 4).
# […]. A Lineweaver–Burk plot was generated to determine the inhibition type and calculate the Michaelis–Menten constant (Km). Secondary plots were constructed to determine the experimental inhibitor constant (Ki).
# [7] = mean ± S.E, read-out: BChE (IC50)
# [8] = single graphs behind the mean BChE IC50 of Table 2, read-out: IC50 (individual IC50 graphs, Table S1)
# T1 sequence (P06276 29-602): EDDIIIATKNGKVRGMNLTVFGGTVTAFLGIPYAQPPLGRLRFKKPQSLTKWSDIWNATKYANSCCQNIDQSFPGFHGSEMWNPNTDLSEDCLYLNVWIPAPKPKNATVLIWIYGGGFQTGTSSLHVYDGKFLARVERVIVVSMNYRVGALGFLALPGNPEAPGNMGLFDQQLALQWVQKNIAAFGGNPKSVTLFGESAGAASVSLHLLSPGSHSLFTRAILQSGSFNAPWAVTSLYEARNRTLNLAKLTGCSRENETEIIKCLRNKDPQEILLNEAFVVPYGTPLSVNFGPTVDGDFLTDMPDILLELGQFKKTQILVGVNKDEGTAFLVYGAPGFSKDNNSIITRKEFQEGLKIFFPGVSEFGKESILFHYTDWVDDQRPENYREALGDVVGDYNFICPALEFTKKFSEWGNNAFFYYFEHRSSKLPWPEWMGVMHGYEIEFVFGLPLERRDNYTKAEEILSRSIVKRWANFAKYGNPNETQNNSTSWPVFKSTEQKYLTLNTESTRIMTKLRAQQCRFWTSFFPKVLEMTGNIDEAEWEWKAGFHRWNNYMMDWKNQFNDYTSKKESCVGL
SMILES,inhibition at 50 µM ([4]; mean ± S.E) [%],inhibition at 50 µM [5] [%],"IC50 [4, 7] [nM]","IC50 [4, 8]",other results
CCOc1ccc2c(c1)OC/C(=C\c1ccc(OCCN3CCCCC3)cc1)C2=O [A],,,,,IC50 [1]: 854 ± 40 nM
O=C(O)c1coc2ccc(OCc3ccccc3)cc2c1=O [B],,,,,IC50 [1]: 5240 nM; blood–brain barrier (BBB) permeability [2]: 5.4 ± 0.3 × 10^−6 cm s^−1; IC50 [3]: 370 nM
"N#CC1=C(N)OC2=C(C(=O)CCC2)C1c1ccccc1 (stereo not drawn) [Compound 4a, 2-Amino-5-oxo-4-phenyl-5,6,7,8-tetrahydro-4H-chromene-3-carbonitrile]",39.8 ± 1.39,21 ± 1.31,,,
"N#CC1=C(N)OC2=C(C(=O)CCC2)C1c1ccc([N+](=O)[O-])cc1 (stereo not drawn) [Compound 4b, 2-Amino-4-(4-nitrophenyl)-5-oxo-5,6,7,8-tetrahydro-4H-chromene-3-carbonitrile]",58.7 ± 1.18,28.9 ± 2.56,27400 ± 2010,28800 nM and 26000 nM,
"N#CC1=C(N)OC2=C(C(=O)CCC2)C1c1ccc(OCc2ccc(Cl)cc2)cc1 (stereo not drawn) [Compound 4c, 2-Amino-4-{4-[(4-chlorobenzyl)oxy]phenyl}-5-oxo-5,6,7,8-tetrahydro-4Hchromene-3-carbonitrile]",77.7 ± 3.77,23.6 ± 1.2,890 ± 240,1070 nM and 720 nM,
"N#CC1=C(N)OC2=C(C(=O)CCC2)C1c1ccc(OCc2ccc(Br)cc2)cc1 (stereo not drawn) [Compound 4d, 2-Amino-4-{4-[(4-bromobenzyl)oxy]phenyl}-5-oxo-5,6,7,8-tetrahydro-4Hchromene-3-carbonitrile]",67.8 ± 1.7,23.4 ± 1,1190 ± 310,1410 nM and 970 nM,
"N#CC1=C(N)OC2=C(C(=O)CCC2)C1c1ccc(OCCN2CCOCC2)cc1 (stereo not drawn) [Compound 4e, 2-Amino-4-[4-(2-morpholinoethoxy)phenyl]-5-oxo-5,6,7,8-tetrahydro-4Hchromene-3-carbonitrile]",58.9 ± 0.93,34.4 ± 3.1,26300 ± 3340,28700 nM and 24000 nM,
"N#CC1=C(N)OC2=C(C(=O)CCC2)C1c1cccc(OCc2ccc(Cl)cc2)c1 (stereo not drawn) [Compound 4f, 2-Amino-4-{3-[(4-chlorobenzyl)oxy]phenyl}-5-oxo-5,6,7,8-tetrahydro-4H-chromene-3-carbonitrile]",62 ± 7.24,4.42 ± 0.57,5700 ± 680,6180 nM and 5210 nM,inhibitory activity against AChE (in words) [5]: nearly inactive
"N#CC1=C(N)OC2=C(C(=O)CCC2)C1c1cccc(OCc2ccc(Br)cc2)c1 (stereo not drawn) [Compound 4g, 2-Amino-4-{3-[(4-bromobenzyl)oxy]phenyl}-5-oxo-5,6,7,8-tetrahydro-4Hchromene-3-carbonitrile]",57.3 ± 9.75,15 ± 2.59,13100 ± 2590,11200 nM and 14900 nM,inhibitory activity against AChE (in words) [5]: nearly inactive
"N#CC1=C(N)OC2=C(C(=O)CCC2)C1c1ccccc1OCc1ccc(Cl)cc1 (stereo not drawn) [Compound 4h, 2-Amino-4-{2-[(4-chlorobenzyl)oxy]phenyl}-5-oxo-5,6,7,8-tetrahydro-4H-chromene-3-carbonitrile]",21.3 ± 2.69,7.35 ± 0.56,,,
"N#CC1=C(N)OC2=C(C(=O)CCC2)C1c1ccccc1OCc1cccc(Cl)c1 (stereo not drawn) [Compound 4i, 2-Amino-4-{2-[(3-chlorobenzyl)oxy]phenyl}-5-oxo-5,6,7,8-tetrahydro-4H-chromene-3-carbonitrile]",42.8 ± 1.22,19.4 ± 2.39,,,
"COc1ccc(COc2ccccc2C2C(C#N)=C(N)OC3=C2C(=O)CCC3)cc1 (stereo not drawn) [Compound 4j, 2-Amino-4-{2-[(4-methoxybenzyl)oxy]phenyl}-5-oxo-5,6,7,8-tetrahydro-4H-chromene-3-carbonitrile]",38.3 ± 4.36,16.3 ± 0.63,,,
"COc1cc(C2C(C#N)=C(N)OC3=C2C(=O)CCC3)ccc1OCc1ccc(F)cc1 (stereo not drawn) [Compound 4k, 2-Amino-4-{4-[(4-fluorobenzyl)oxy]-3-methoxyphenyl}-5-oxo-5,6,7,8-tetrahydro-4H-chromene-3-carbonitrile]",80.5 ± 5.08,41.1 ± 2.33,650 ± 130,,"type of inhibition ([6]; Lineweaver–Burk plot, Km increased, Vmax unaffected): competitive-type inhibition; also recorded: competitive inhibitor; Ki ([6]; from secondary plot of slopes vs inhibitor concentration, R^2 = 0.9876, read-out: Ki (inhibition constant)): 550 nM"
"COc1cc(C2C(C#N)=C(N)OC3=C2C(=O)CCC3)ccc1OCc1cccc(F)c1 (stereo not drawn) [Compound 4l, 2-Amino-4-{4-[(3-fluorobenzyl)oxy]-3-methoxyphenyl}-5-oxo-5,6,7,8-tetrahydro-4H-chromene-3-carbonitrile]",76.1 ± 0.88,33.6 ± 3.29,2630 ± 190,2770 nM and 2490 nM,
"COc1cc(C2C(C#N)=C(N)OC3=C2C(=O)CCC3)ccc1OCc1cccc(Cl)c1 (stereo not drawn) [Compound 4m, A-amino-4-{4-[(3-chlorobenzyl)oxy]-3-methoxyphenyl}-5-oxo-5,6,7,8-tetrahydro-4H-chromene-3-carbonitrile]",69.7 ± 1.52,12.9 ± 1.27,1510 ± 200,,"IC50 ([4]; read-out: IC50 (individual IC50 graphs, Table S1)): 1650 nM and 1360 nM"
O=C(NCCCCCCCCCCNc1c2c(nc3ccccc13)CCCC2)c1cc(=O)c2cc(O)ccc2o1 [E],,,,,IC50 [1]: 1500 ± 40 nM; BBB permeability [2]: 23.1 ± 0.1 × 10^−6 cm s^−1; IC50 [3]: 8000 ± 200 nM
N#CC1=C(N)Oc2c(c(=O)oc3ccccc23)C1c1cc[n+](Cc2ccc(F)cc2)cc1 (stereo not drawn) [F],,,,,IC50 [1]: 1840 ± 120 nM
N#CC1=C(N)OC2=C(C(=O)CCC2)C1c1ccc(OCCN2CCCCC2)cc1 (stereo not drawn) [G],,,,,IC50 [1]: 8100 ± 500 nM; IC50 [3]: 20400 ± 9300 nM
